Measured values as given in patent US20240336565A1, “SOLID FORMS OF OSANETANT” (Acer Therapeutics, Inc., priority 2021, published 2024).
Entries after “also recorded” stand apart in the source; their conditions may differ.

How the values were obtained:
[1] = Salt screen: XRPD of isolated solids after drying at 40° C. and at 40° C./75% RH; type: physicochemical
How it was run: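 Amorphous lyophilized osanetant (~20 mg) slurried with 1.05 mol eq. counterion in solvent, thermally cycled 5–40 °C at 0.1 °C/min overnight. Solids isolated by centrifugation and analysed by XRPD, then re-analysed after ~24 h drying at 40 °C and again after ~24 h at 40 °C/75% RH.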

[2] = Long term stability: thermal stability of solids at 60° C.; type: physicochemical; conditions: solids, darkened oven at 60° C., up to 14 days
Procedure: Osanetant p-toluenesulfonic acid Form 1 and osanetant benzenesulfonic acid Form 1 were tested for long-term stability across a number of different conditions, as detailed below.
Thermal stability of solids at 60° C.—Osanetant p-toluenesulfonic acid Form 1 and osanetant benzenesulfonic acid Form 1 were stored in a darkened oven at 60° C. in glass vials. Samples were taken after T=1, 2, 4, 7, and 14 days storage. […] The purity of the resulting material is described in Table 41: […]

CC(=O)N(C)C1(c2ccccc2)CCN(CCC[C@]2(c3ccc(Cl)c(Cl)c3)CCCN(C(=O)c3ccccc3)C2)CC1.Cc1ccc(S(=O)(=O)O)cc1 [osanetant p-toluenesulfonic acid Form 1, (R)-N-(1-(3-(1-benzoyl-3-(3,4-dichlorophenyl)piperidin-3-yl)propyl)-4-phenylpiperidin-4-yl)-N-methylacetamide p-toluenesulfonic acid]
XRPD after drying at 40° C./75% RH ([1]; after 40° C. drying, dried at 40° C./75% RH for about 24 h, label = form after 40° C. drying): retained; also recorded: stable; also recorded: Form 1 | XRPD after drying at 40° C. ([1]; isolated solids dried at 40° C. for about 24 h, label = wet form): retained; also recorded: Form 1 | degradation on storage (purity) [2]: lack of degradation
